{
  "source": "patent US20240301408A1",
  "about": "“MICRORNA 195 COMPOSITIONS AND METHODS FOR TREATING COGNITIVE IMPAIRMENT” (UNITED STATES GOVERNMENT AS REPRESENTED BY THE DEPARTMENT …, priority 2021, published 2024)",
  "key": {"[1]": {"system": "ApoE4+/+ or ApoE3+/+ knock-in (KI) mice", "assay": "novel object recognition (NOR) after hippocampal AAV2 injection, ApoE KI mice", "type": "in vivo, mouse", "from_the_text": "Animal models. Human ApoE4^+/+ or ApoE3^+/+ knock-in (KI) mouse models without (Grootendorst J et al., Behavioural brain research 2005, Rodriguez G A et al., Learn Mem 2013, and Wang C et al., Neurobiology of disease 2005) or with 5×FAD background (Balu D et al., Neurosci Lett 2019, and Tai L M et al., J Lipid Res 2017) were genotyped (Zhong L et al., Mol Neurodegener 2016). Sex as a biological variable was taken into considerations with inclusion of both male and female mice in the experiments.\n(§1) Stereotaxic injection and behavior studies. Eight to nine weeks old male and female ApoE3^+/+ and ApoE4^+/+ KI mice without 5×FAD background (N=19-23/group), or with 5×FAD background (N=15-17/group) were placed in the stereotaxic apparatus with AAV2 or scramble virus administered into the dorsal CA1 regions of bilateral hippocampal brain regions using pressure injection (Labonte B et al., Nat Med 2017, and Passini M A et al., The Journal of neuroscience 2006). Injection volumes (0.5-2.0 μl) were delivered over 10 min to avoid tissue damage. Six to nine months after viral delivery, mice were tested with the NOR task (Zhu L et al., Proc Natl Acad Sci USA 2015, Elder G A et al., J Neurotrauma 2012, and Howlett D R et al., Brain Res 2004). Mice were randomized for genotype and sex, and blinded throughout the behavior data collection and analysis, surgical manipulations, and sample collection."}, "ApoE": {"system": "ApoE", "assay": "brain ApoE levels in ApoE KI mice after miR-195 over-expression", "type": "in vivo", "settings": "ApoE4+/+ or ApoE3+/+ mouse brains", "protocol": "(§2) Stereotaxic injection and behavior studies. Eight to nine weeks old male and female ApoE3^+/+ and ApoE4^+/+ KI mice without 5×FAD background (N=19-23/group), or with 5×FAD background (N=15-17/group) were placed in the stereotaxic apparatus with AAV2 or scramble virus administered into the dorsal CA1 regions of bilateral hippocampal brain regions using pressure injection (Labonte B et al., Nat Med 2017, and Passini M A et al., The Journal of neuroscience 2006). Injection volumes (0.5-2.0 μl) were delivered over 10 min to avoid tissue damage. […]\n(§3) Brain and neuronal sample preparation and biochemical analysis. […] Levels of Aβ42, Aβ40, pTau, Tau and ApoE were determined using high-sensitive ELISA kits. […]\n(§4) Statistical analysis. […] Levels of miR-195-5p and miR-374 were normalized to U6 and RNU6B (internal controls) while synj1 mRNA normalized to GAPDH and 18s, and then expressed as Log2fold of changes when compared to controls. Levels of synj1, dyn1, pTau, Tau, and holoAPP were normalized to β-actin levels and expressed as a percentage of the control. Absolute Aβ42, Aβ40, pTau, Tau, and ApoE concentrations were quantitatively determined by ELISA and expressed as a percentage of the control. […] Pearson correlation coefficients were calculated to determine the linear relationship between the two variables. […]"}, "pTau, total Tau": {"system": "pTau, total Tau", "assay": "brain pTau and total Tau in EFAD mice after miR-195-5p over-expression", "type": "in vivo", "settings": "ApoE4+/+ FAD mouse hippocampus", "protocol": "as §2, §3, §4"}, "[2]": {"system": "endogenous mouse Aβ40 or Aβ42", "assay": "endogenous brain Aβ40 / Aβ42 levels in ApoE KI mice after miR-195 over-expression", "type": "in vivo", "settings": "ApoE4+/+ or ApoE3+/+ mouse brains", "protocol": "as §2, §3, §4"}, "synj1": {"system": "synj1", "assay": "brain synj1 mRNA and protein levels in ApoE KI mice after miR-195 over-expression", "type": "in vivo, mouse", "protocol": "as §1\nBrain and neuronal sample preparation and biochemical analysis. Snap-frozen mouse hemi-brains or cultured neurons were harvested in lysis buffer (Lane R F et al., The Journal of neuroscience 2010) and processed via step-wise solubilization (Lane R F et al., The Journal of neuroscience 2010, and Kawarabayashi T et al. The Journal of neuroscience 2001) followed by SDS-PAGE to determine levels of synj1, dyn1, holoAPP, and CTFs. Levels of Aβ42, Aβ40, pTau, Tau and ApoE were determined using high-sensitive ELISA kits. Some tissue was used for miRNA and RNA extraction followed by qPCR and RNA-seq analysis. […]\nas §4"}},
  "data": [
    {"sequence": "UAGCAGCACAGAAAUAUUGGC (chemistry not given here) [miR-195-5p, over-expressed via AAV2-containing miR-195-5p from ABM Inc]", "values": [
      {"measurement": "NOR, scramble versus miR-195-5p over-expressing animals", "setting": "[1]; ApoE3+/+ KI mice", "result": "no statistically significant differences"},
      {"measurement": "NOR preference index", "setting": "[1]; ApoE4+/+ KI mice, viral delivery to bilateral hippocampi, scramble controls 42.9%", "result": 61.5, "unit": "%"},
      {"measurement": "NOR discrimination index", "setting": "[1]; ApoE4+/+ KI mice, scramble controls −0.144", "result": 0.231},
      {"measurement": "ApoE levels", "setting": "ApoE", "result": "No significant changes"},
      {"measurement": "ApoE levels", "setting": "ApoE; listed as miR-195", "result": "no significant changes"},
      {"measurement": "p-Tau", "setting": "pTau, total Tau", "result": "reduction"},
      {"measurement": "endogenous Aβ40 or Aβ42 levels", "setting": "[2]", "result": "No significant changes"},
      {"measurement": "endogenous Aβ40 or Aβ42 levels", "setting": "[2]; listed as miR-195", "result": "no significant changes"},
      {"measurement": "synj1 mRNA and protein levels", "setting": "synj1; ApoE3+/+ mouse brains", "result": "Trends of reduction"},
      {"measurement": "synj1 mRNA", "setting": "synj1; ApoE4+/+ mouse brains, scramble controls 0.52", "result": "−1.29", "unit": "Log 2FC"},
      {"measurement": "synj1 protein", "setting": "synj1; ApoE4+/+ mouse brains, scramble controls 77.7", "result": "56.4 % of control"}
    ]}
  ]
}
